The text below walks through data of patent publication US5840721A, “Imidazole derivatives as MDR modulators” (Ontogen Corporation, priority 1997, dated 1998).

By EC50 is commonly meant the concentration giving half of the maximal effect.

Structures are written as SMILES.

The experiment has as its system CEM/VLB1000 cell line. Kind of experiment: Cytotoxicity potentiation: enhancement of vinblastine cytotoxicity in MDR cell line (alamar blue). In kind it is cell-based, human. As to conditions: Homo sapiens, midpoint of minimum and maximum cytotoxicity induced by 3-5 μg/mL vinblastine and compound, 48 hours incubation, alamar blue 24 hours, read-out: Cytotocicity Potentiation (EC50). On the procedure: Multidrug-resistant cell lines are easily obtainable for in vitro determination of drug sensitization by compounds of the present invention. In vitro potentiation of antineoplastic cytotoxicity by the imidazole derivatives of the present invention was measured in both CEM/VLB1000 and SK/VLB1000 cell lines. The multidrug resistant cell lines were obtained from Dr. Victor Ling, Ontario Cancer Institute, Toronto, Canada. The CEM/VLB 1000 cell line was maintained as a suspension in minimum essential medium supplemented with 10% fetal bovine serum in a humidied atmosphere of 95% air and 5% CO2 while the SK/VLB 1000 cell line was maintained as adherent cells using the identical medium conditions as the CEM cells. The CEM/VLB 1000 cells were seeded at a density of 5×10^4 cells/well in a 96 well microtiter plate while the SK/VLB 1000 cell line was seeded at a density of 2,500 cells/well after trypsinization.
On the technique in general: Resazurin is reduced to fluorescent resorufin, in cell work by metabolically active cells.
Regarding `COCCNc1ccc(-c2[nH]c(-c3ccc(/C=C/c4nc5ccccc5o4)cc3)nc2-c2ccc(N(C)C)cc2)cc1` [Example 61, 2-[trans-2-(2-benzoxazolyl)ethenylphenyl]-4-(4-N,N-dimethylaminophenyl)-5-[4-(2-methoxyethylamino)phenyl] imidazole], the EC50 amounted to 160 nM.
Regarding `CCN(CC)c1ccc(-c2nc(-c3ccc(/C=C/c4nc5ccccc5o4)cc3)[nH]c2-c2ccc(NC)cc2)cc1` [Example 58, 2-[trans-2-(2-benzoxazolyl)ethenylphenyl]-4-(4-N,N-diethylaminophenyl)-5-(4-N-methylaminophenyl) imidazole], the EC50 came out at 470 nM.
For `COC(=O)/C=C/c1ccc(-c2nc(-c3ccc(N(C)C)cc3)c(-c3ccc(N4CCOCC4)cc3)[nH]2)cc1` [Example 72, 2-(trans-2-methoxycarbonyl-ethenylphenyl)-4-(4-N-dimethylaminophenyl)-5-(4-N-morpholinophenyl) imidazole] the value was 320 nM; for `CCOC/C=C/c1ccc(-c2nc(-c3ccc(NC(C)C)cc3)c(-c3ccc(F)cc3)[nH]2)cc1` [Example 121, 2-[4-(3-ethoxy-trans-1-propen-1-yl)phenyl]-4-(4-fluorophenyl)-5-(4-N-isopropylaminophenyl) imidazole], 120 nM; for `CN(C)c1ccc(-c2nc(-c3ccc(/C=C/COC(=O)C(C)(C)C)cc3)[nH]c2-c2ccc(N(C)C)cc2)cc1` [Example 115, 2-[4-(3-pivalate-trans-1-propen-1-yl)phenyl]-4,5-bis (4-N,N-dimethylaminophenyl) imidazole], 480 nM.
As for `CCOC/C=C/c1ccc(-c2nc(-c3ccc(OC)cc3)c(-c3ccc(OC)cc3)[nH]2)cc1` [Example 102, 2-[4-(3-ethoxy-trans-1-propen-1-yl)phenyl]-4,5-bis (4-dimethoxyphenyl) imidazole], the EC50 turned out to be 350 nM.
Turning to `CCOC/C=C/c1ccc(-c2nc(-c3ccc(N(CC)CC)cc3)c(-c3ccc(NC)cc3)[nH]2)cc1` [Example 87, 2-[4-(3-ethoxy-trans-1-propen-1-yl)phenyl]-4-(4-N,N-diethylaminophenyl)5-(4-N-methylaminophenyl) imidazole], the concentration giving a half-maximal response (EC50) is 60 nM.
The value for `COC(=O)[C@@H]1C[C@H]1c1ccc(-c2nc(-c3ccc(N(C)C)cc3)c(-c3ccc(N(C)C)cc3)[nH]2)cc1` (relative stereo) [Example 101] was 200 nM.
Take `CN(C)c1ccc(-c2nc(-c3ccc(/C=C/S(C)(=O)=O)cc3)[nH]c2-c2ccc(N(C)C)cc2)cc1` [Example 96, 2-[4-trans-(2-methanesulfonyl-ethenyl)-phenyl]-4,5-bis (4-N,N-dimethylaminophenyl) imidazole]: the EC50 amounted to 730 nM.
Take `CN(C)C/C=C/c1ccc(-c2nc(-c3ccc(N(C)C)cc3)c(-c3ccc(N(C)C)cc3)[nH]2)cc1` [Example 83, 2-[4-(3-N,N-dimethylamino-trans-1-propen-1-yl)phenyl]-4,5-bis (4-N,N-dimethylaminophenyl) imidazole]: the EC50 was 1300 nM.
As for `CNc1ccc(-c2nc(-c3ccc(/C=C/C(=O)OC)cc3)[nH]c2-c2ccc(N3CCCCC3)cc2)cc1` [Example 68, 2-(trans-2-methoxycarbonyl-ethenylphenyl) -4-(4-N-methylaminophenyl)5-(4-piperidinophenyl) imidazole], the EC50 was 390 nM.
Regarding `CCOC/C=C/c1ccc(-c2nc(-c3ccc(OC(C)C)cc3)c(-c3ccc(OC(C)C)cc3)n2CCCn2ccnc2)cc1` [Example 107, 1-(3-imidazole-1-yl-propyl)-2-[4-(3-ethoxy-trans-1-propen-1-yl)phenyl]-4,5bis (4-diisopropyloxyphenyl) imidazole], the EC50 amounted to 490 nM.
The value for `CCOC/C=C/c1ccc(-c2nc(-c3ccc(N4CCN(CC)CC4)cc3)c[nH]2)cc1` [Example 126, 2-[4-(3-ethoxy-trans-1-propen-1-yl)phenyl]-4-[4-N-(N'-ethyl)piperizanophenyl) imidazole] was 710 nM.
